This is an account of results in ChEMBL document CHEMBL1158553, “Synthesis and biological activity of cyclotetrapeptide analogues of the natural HDAC inhibitor FR235222” (Bioorg Med Chem, 2010).

In general, inhibition refers to the relative decrease from the control value, in per cent. Read a low inhibition as a response near the control.

Assay [1] addresses Histone deacetylase 4 (Homo sapiens) (UniProt P56524). Particulars: 100 uM.
Assay [2] concerns the target Histone deacetylase 2 (Homo sapiens) (UniProt Q92769). Particulars: HEK293; 100 uM.
In assay [3] the target is T1, Histone deacetylase 7 (Homo sapiens) (UniProt Q8WUI4).
T1 sequence (whole entry): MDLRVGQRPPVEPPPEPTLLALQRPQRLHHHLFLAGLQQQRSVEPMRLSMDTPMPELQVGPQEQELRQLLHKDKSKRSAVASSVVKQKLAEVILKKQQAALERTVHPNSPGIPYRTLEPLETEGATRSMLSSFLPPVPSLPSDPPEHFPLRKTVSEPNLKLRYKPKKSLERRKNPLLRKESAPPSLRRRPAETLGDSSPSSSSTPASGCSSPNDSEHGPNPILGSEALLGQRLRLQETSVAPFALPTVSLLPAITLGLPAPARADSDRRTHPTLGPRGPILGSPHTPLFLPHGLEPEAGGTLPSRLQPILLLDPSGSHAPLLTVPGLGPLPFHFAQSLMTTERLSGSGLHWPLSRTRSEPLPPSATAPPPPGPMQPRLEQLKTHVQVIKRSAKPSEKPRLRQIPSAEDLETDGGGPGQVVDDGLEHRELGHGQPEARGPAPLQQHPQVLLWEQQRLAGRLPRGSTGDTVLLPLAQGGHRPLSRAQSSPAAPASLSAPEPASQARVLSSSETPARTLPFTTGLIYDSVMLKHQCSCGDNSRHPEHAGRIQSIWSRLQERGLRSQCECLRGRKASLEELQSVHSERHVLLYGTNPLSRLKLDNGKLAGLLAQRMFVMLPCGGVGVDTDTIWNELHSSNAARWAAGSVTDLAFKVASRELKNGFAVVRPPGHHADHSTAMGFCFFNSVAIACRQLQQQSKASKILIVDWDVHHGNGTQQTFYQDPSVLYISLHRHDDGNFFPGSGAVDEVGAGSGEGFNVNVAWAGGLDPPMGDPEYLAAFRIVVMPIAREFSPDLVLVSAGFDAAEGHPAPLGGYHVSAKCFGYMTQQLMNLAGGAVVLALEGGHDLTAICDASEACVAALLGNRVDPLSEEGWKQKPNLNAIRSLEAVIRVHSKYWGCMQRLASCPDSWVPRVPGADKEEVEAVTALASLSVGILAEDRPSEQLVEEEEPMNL
The note with it: 100 uM.

Assay [4] deals with Histone deacetylase 3 (Homo sapiens) (UniProt O15379). Particulars: HEK293; 100 uM.
Histone deacetylase 3 (Homo sapiens), sequence (O15379 whole entry): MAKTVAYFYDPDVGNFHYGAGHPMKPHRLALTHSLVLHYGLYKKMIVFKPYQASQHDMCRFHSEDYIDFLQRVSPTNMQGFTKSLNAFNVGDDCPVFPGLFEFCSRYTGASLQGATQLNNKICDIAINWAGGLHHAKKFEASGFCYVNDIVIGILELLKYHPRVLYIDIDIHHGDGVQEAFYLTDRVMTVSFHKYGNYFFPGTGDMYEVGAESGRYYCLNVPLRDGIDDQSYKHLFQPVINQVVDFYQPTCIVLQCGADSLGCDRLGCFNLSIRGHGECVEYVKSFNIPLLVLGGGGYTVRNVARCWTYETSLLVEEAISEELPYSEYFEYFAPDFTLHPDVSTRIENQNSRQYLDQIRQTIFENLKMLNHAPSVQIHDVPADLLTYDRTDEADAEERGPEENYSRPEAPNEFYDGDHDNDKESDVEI
The target of assay [5] is Histone deacetylase 2 (Homo sapiens) (UniProt Q92769). Particulars: HEK293; 50 uM.
Histone deacetylase 2 (Homo sapiens), sequence (Q92769 whole entry): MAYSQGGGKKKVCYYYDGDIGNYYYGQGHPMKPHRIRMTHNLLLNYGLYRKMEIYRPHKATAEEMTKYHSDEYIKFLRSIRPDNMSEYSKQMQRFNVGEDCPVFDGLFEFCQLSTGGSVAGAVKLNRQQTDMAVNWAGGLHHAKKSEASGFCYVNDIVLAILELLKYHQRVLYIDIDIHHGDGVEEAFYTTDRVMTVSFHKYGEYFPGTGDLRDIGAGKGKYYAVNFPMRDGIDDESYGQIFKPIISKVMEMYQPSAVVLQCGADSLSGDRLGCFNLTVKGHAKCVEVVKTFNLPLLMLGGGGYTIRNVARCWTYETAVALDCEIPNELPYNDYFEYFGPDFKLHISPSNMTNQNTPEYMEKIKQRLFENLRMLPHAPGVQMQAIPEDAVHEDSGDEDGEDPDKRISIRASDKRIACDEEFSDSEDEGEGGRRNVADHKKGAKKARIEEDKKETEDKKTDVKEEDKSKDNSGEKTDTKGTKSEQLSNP
The target in assay [6] is Histone deacetylase 3 (Homo sapiens) (UniProt O15379). Particulars: HEK293; 50 uM.
The target of assay [7] is Histone deacetylase 1 (Homo sapiens) (UniProt Q13547). The note with it: HEK293; 50 uM.
Histone deacetylase 1 (Homo sapiens), sequence (Q13547 whole entry): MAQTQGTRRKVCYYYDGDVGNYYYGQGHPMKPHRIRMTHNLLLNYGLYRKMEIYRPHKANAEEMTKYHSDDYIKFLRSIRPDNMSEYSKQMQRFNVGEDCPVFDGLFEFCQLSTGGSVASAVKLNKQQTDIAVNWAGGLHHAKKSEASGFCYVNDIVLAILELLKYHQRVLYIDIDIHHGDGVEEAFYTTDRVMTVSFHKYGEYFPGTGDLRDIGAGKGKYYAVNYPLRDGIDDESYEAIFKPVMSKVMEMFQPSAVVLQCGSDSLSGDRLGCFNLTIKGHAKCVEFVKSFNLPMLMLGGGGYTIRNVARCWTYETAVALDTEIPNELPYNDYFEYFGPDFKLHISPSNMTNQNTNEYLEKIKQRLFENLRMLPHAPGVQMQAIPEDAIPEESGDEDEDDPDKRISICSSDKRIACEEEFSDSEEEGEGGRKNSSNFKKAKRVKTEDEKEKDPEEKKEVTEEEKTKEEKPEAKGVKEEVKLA
Assay [8] addresses Histone deacetylase 4 (Homo sapiens) (UniProt P56524). The note with it: 50 uM.
For assay [9], the target named is Histone deacetylase (Homo sapiens) (UniProt Q13547+O15379+Q9UBN7+Q92769+Q9UQL6+Q8WUI4+Q9BY41+Q96DB2+P56524+Q9UKV0+Q969S8). The note with it: HeLa, 100 uM.

Histone deacetylase 4 (Homo sapiens), sequence (P56524 whole entry): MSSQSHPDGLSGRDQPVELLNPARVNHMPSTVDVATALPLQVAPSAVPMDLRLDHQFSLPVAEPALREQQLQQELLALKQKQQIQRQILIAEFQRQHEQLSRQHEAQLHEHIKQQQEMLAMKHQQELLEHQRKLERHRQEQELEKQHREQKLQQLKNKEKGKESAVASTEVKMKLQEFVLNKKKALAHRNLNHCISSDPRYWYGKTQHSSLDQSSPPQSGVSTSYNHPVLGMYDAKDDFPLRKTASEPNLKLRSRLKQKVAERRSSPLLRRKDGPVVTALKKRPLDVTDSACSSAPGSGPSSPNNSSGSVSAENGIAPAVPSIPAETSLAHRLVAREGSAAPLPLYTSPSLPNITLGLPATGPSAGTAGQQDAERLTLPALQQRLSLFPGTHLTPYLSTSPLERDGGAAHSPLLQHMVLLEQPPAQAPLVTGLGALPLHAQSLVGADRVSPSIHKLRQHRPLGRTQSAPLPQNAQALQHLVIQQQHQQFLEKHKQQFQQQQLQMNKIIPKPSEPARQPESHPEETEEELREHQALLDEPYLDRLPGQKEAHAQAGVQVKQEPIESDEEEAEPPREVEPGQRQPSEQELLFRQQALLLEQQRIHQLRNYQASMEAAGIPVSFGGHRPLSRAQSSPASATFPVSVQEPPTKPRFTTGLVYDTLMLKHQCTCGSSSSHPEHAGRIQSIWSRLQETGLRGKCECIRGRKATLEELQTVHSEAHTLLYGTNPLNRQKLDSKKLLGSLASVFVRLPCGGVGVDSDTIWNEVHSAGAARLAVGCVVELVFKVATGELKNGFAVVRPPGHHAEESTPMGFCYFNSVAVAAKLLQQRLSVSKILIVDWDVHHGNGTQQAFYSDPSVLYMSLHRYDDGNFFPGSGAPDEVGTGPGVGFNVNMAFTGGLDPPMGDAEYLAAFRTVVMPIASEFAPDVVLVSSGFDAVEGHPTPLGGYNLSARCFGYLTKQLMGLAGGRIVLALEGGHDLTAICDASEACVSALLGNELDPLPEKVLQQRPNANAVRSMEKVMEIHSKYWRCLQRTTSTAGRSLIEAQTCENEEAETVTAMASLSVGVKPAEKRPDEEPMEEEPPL

Consider `C[C@H](O)C(=O)CCCCC[C@@H]1NC(=O)[C@H]2CCCN2C(=O)[C@H](Cc2ccccc2)NC(=O)[C@H](Cc2c[nH]c3ccccc23)NC1=O`, for which the inhibition in assay [1] amounted to 50%.
Regarding `O=C(CCCCC[C@@H]1NC(=O)[C@H](Cc2c[nH]c3ccccc23)NC(=O)[C@H]2CCCN2C(=O)[C@H](Cc2c[nH]c3ccccc23)NC1=O)NO`, the values for the inhibition in assay [2], in assay [3] and in [4] were 34%, 48.5% and 23.5%, respectively.
On to `O=C(CCCCC[C@@H]1NC(=O)[C@H]2CCCN2C(=O)[C@H](Cc2ccccc2)NC(=O)[C@H](Cc2c[nH]c3ccccc23)NC1=O)NO`, for which the inhibition is 30% in [5], 14.7% in assay [6] and 42% in assay [7].
Turning to `O=C(O)CC/C=C\C[C@@H]1NC(=O)[C@H]2CCCN2C(=O)[C@H](Cc2ccccc2)NC(=O)[C@H](Cc2c[nH]c3ccccc23)NC1=O`, in assay [8], the inhibition was 37%.
The compound `O=C(O)CC/C=C\C[C@@H]1NC(=O)[C@H](Cc2c[nH]c3ccccc23)NC(=O)[C@H]2CCCN2C(=O)[C@H](Cc2c[nH]c3ccccc23)NC1=O` showed an inhibition in [9] of 30%.
